Values quoted from earlier work, collected in US12662707B2, “MYC amplification drives resistance to pan-RAS inhibitors in pancreatic cancer” (The Trustees of Columbia University in the City of New York, priority 2024, dated 2026).

Test system: autochthonous KPC pancreatic tumors
Conditions: reference 27; cited from earlier work

## Nc1ccn([C@@H]2O[C@H](CO)[C@@H](O)C2(F)F)c(=O)n1 [gemcitabine]
  effect on survival in the KPC model: do not significantly alter survival
